{
  "source": "patent US4288590A",
  "about": "“7 -[Dα-(4-Hydroxy-1,5-naphthyridine-3-carboxamido)-α-arylacetam ido]-3-(N,N-dimethyl-aminomethylpyridinium) methyl-3-cephem-4-carboxylates” (Bristol-Myers Company, priority 1980, dated 1981)",
  "key": {"[1]": {"system": "K. pneumoniae A9977", "test": "In vivo efficacy, experimental infection in mice", "conditions": "Klebsiella pneumoniae, A9977, in Mus musculus, im, 120 h, read-out: PD50 (median protective dose)", "description": "(§3) The mice were treated with test compound by im route immediately after the bacterial challenge."}, "[2]": {"test": "Mouse blood levels after intramuscular administration (Table 3)", "type": "in vivo", "conditions": "im, read-out: Blood level; for concentration at 0.25 h: 15'; for concentration at 0.5 h: 30'; for concentration at 1 h: 60'; for concentration at 2 h: 120'", "experimental": "(§1) […] The blood samples were collected from the orbital sinuses into heparinized capillary tubes at 15, 30, 60 and 120 minutes after administration. The antibiotic concentration was determined by the paper disc-agar diffusion method using E. coli NIHJ or S. lutea PCI 1001 as the assay organism."}, "[3]": {"system": "P. morganii A15153", "test": "In vivo efficacy, experimental infection in mice", "conditions": "Morganella morganii, A15153, in Mus musculus, im, 120 h, read-out: PD50 (median protective dose)", "description": "as §3"}, "[4]": {"system": "P. aeruginosa A21509", "test": "In vivo efficacy, experimental infection in mice", "conditions": "Pseudomonas aeruginosa, A21509, in Mus musculus, im, 120 h, read-out: PD50 (median protective dose)", "description": "as §3"}, "[5]": {"system": "P. aeruginosa A9843", "test": "In vivo efficacy, experimental infection in mice", "conditions": "Pseudomonas aeruginosa, A9843, in Mus musculus, im, 120 h, read-out: PD50 (median protective dose)", "description": "as §3"}, "[6]": {"system": "E. coli Juhl A15119", "test": "In vivo efficacy, experimental infection in mice", "conditions": "Escherichia coli, JUHLA15119, in Mus musculus, im, 120 h, read-out: PD50 (median protective dose)", "description": "as §3"}, "[7]": {"system": "S. aureus BX-1633 A9606", "test": "In vivo efficacy, experimental infection in mice", "conditions": "Staphylococcus aureus, BX1633A9606, in Mus musculus, im, 120 h, read-out: PD50 (median protective dose)", "description": "as §3"}, "[8]": {"system": "E. coli (Gn-Ia)", "test": "In vitro activity, MIC of strain group (Table 2)", "type": "cell-based", "conditions": "Escherichia coli, 7 strains, read-out: Geometric mean of MIC", "experimental": "(§2) Minimum inhibitory concentrations (MIC) of BB-S 651, BB-S 669 and BB-S 676 were determined by serial two-fold agar dilution method using Steers' apparatus on Mueller-Hinton agar plate against 15 test organisms for primary screening as shown in Table 1."}, "[9]": {"system": "P. aeruginosa", "test": "In vitro activity, MIC of strain group (Table 2)", "type": "cell-based", "conditions": "Pseudomonas aeruginosa; Gn-III P. aeruginosa, 32 strains; read-out: Geometric mean of MIC", "experimental": "as §2"}, "[10]": {"system": "P. mirabilis (Gn-Ib)", "test": "In vitro activity, MIC of strain group (Table 2)", "type": "cell-based", "conditions": "Proteus mirabilis, 2 strains, read-out: Geometric mean of MIC", "experimental": "as §2"}, "[11]": {"system": "Indole(+) Proteus sp.", "test": "In vitro activity, MIC of strain group (Table 2)", "type": "cell-based", "conditions": "Gn-II Indole(+) Proteus sp., 8 strains; read-out: Geometric mean of MIC", "experimental": "as §2"}, "[12]": {"system": "P. mirabilis (Gn-Ia)", "test": "In vitro activity, MIC of strain group (Table 2)", "type": "cell-based", "conditions": "Proteus mirabilis, 6 strains, read-out: Geometric mean of MIC", "experimental": "as §2"}, "[13]": {"system": "P. putida", "test": "In vitro activity, MIC of strain group (Table 2)", "type": "cell-based", "conditions": "Pseudomonas putida; Gn-III P. putida, 5 strains; read-out: Geometric mean of MIC", "experimental": "as §2"}, "[14]": {"system": "P. stuartii", "test": "In vitro activity, MIC of strain group (Table 2)", "type": "cell-based", "conditions": "Providencia stuartii; Gn-II P. stuartii, 5 strains; read-out: Geometric mean of MIC", "experimental": "as §2"}, "[15]": {"system": "Neisseria sp.", "test": "In vitro activity, MIC of strain group (Table 2)", "type": "cell-based", "conditions": "Gn-IV Neisseria sp., 6 strains; read-out: Geometric mean of MIC", "experimental": "as §2"}, "[16]": {"system": "P. cepacia", "test": "In vitro activity, MIC of strain group (Table 2)", "type": "cell-based", "conditions": "Burkholderia cepacia; Gn-III P. cepacia, 4 strains; read-out: Geometric mean of MIC", "experimental": "as §2"}, "[17]": {"system": "S. aureus (Gp-Ia)", "test": "In vitro activity, MIC of strain group (Table 2)", "type": "cell-based", "conditions": "Staphylococcus aureus, 12 strains, read-out: Geometric mean of MIC", "experimental": "as §2"}, "[18]": {"system": "K. pneumoniae (Gn-Ia)", "test": "In vitro activity, MIC of strain group (Table 2)", "type": "cell-based", "conditions": "Klebsiella pneumoniae, 10 strains, read-out: Geometric mean of MIC", "experimental": "as §2"}, "[19]": {"system": "S. pneumoniae", "test": "In vitro activity, MIC of strain group (Table 2)", "type": "cell-based", "conditions": "Streptococcus pneumoniae; Gp-II S. pneumoniae, 9 strains; read-out: Geometric mean of MIC", "experimental": "as §2"}, "[20]": {"system": "K. pneumoniae (Gn-Ib)", "test": "In vitro activity, MIC of strain group (Table 2)", "type": "cell-based", "conditions": "Klebsiella pneumoniae, 5 strains, read-out: Geometric mean of MIC", "experimental": "as §2"}, "[21]": {"system": "P. maltophilia", "test": "In vitro activity, MIC of strain group (Table 2)", "type": "cell-based", "conditions": "Stenotrophomonas maltophilia; Gn-III P. maltophilia, 13 strains; read-out: Geometric mean of MIC", "experimental": "as §2"}, "[22]": {"test": "Additional mouse blood levels after intramuscular administration (Table 4)", "type": "in vivo", "conditions": "mice, im, read-out: Blood level", "experimental": "as §1"}, "[23]": {"system": "S. aureus Smith A9537", "test": "In vivo efficacy, experimental infection in mice", "conditions": "Staphylococcus aureus, SMITHA9537, in Mus musculus, im, 120 h, read-out: PD50 (median protective dose)", "description": "as §3"}, "[24]": {"system": "P. mirabilis A9900", "test": "In vivo efficacy, experimental infection in mice", "conditions": "Proteus mirabilis, A9900, in Mus musculus, im, 120 h, read-out: PD50 (median protective dose)", "description": "as §3"}, "[25]": {"system": "S. pyogenes A20201", "test": "In vivo efficacy, experimental infection in mice", "conditions": "Streptococcus pyogenes, A20201, in Mus musculus, im, 120 h, read-out: PD50 (median protective dose)", "description": "as §3"}},
  "note": "Where a name gives a salt, the structure may show the parent alone.",
  "data": [
    {"smiles": "CN(C)Cc1ccc[n+](CC2=C(C(=O)[O-])N3C(=O)C(NC(=O)[C@H](NC(=O)c4cnc5cccnc5c4O)c4ccc(O)cc4)C3SC2)c1", "note": "(stereo partly drawn) [BB-S 651, 7-[D-α-(4-Hydroxy-1,5-naphthyridine-3-carboxamido)-α-(4-hydroxyphenyl)acetamido]-3-(3-N,N-dimethylaminomethylpyridinium)methyl-3-cephem-4-carboxylate Hydrochloride]", "values": [
      {"measurement": "ED50", "setting": "[1]", "value": 7.4, "unit": "mg/kg"},
      {"measurement": "concentration at 0.25 h", "setting": "[2]; 10 mg/kg", "value": 5000, "unit": "ng/mL"},
      {"measurement": "concentration at 0.5 h", "setting": "[2]; 10 mg/kg", "value": 3000, "unit": "ng/mL"},
      {"measurement": "concentration at 1 h", "setting": "[2]; 10 mg/kg", "value": "< 400", "unit": "ng/mL"},
      {"measurement": "concentration at 2 h", "setting": "[2]; 10 mg/kg", "value": "< 400", "unit": "ng/mL"},
      {"measurement": "concentration at 0.25 h", "setting": "[2]; 20 mg/kg", "value": 11000, "unit": "ng/mL"},
      {"measurement": "concentration at 0.5 h", "setting": "[2]; 20 mg/kg", "value": 9000, "unit": "ng/mL"},
      {"measurement": "concentration at 1 h", "setting": "[2]; 20 mg/kg", "value": 5000, "unit": "ng/mL"},
      {"measurement": "concentration at 2 h", "setting": "[2]; 20 mg/kg", "value": "< 400", "unit": "ng/mL"},
      {"measurement": "concentration at 0.25 h", "setting": "[2]; 40 mg/kg", "value": 25000, "unit": "ng/mL"},
      {"measurement": "concentration at 0.5 h", "setting": "[2]; 40 mg/kg", "value": 18000, "unit": "ng/mL"},
      {"measurement": "concentration at 1 h", "setting": "[2]; 40 mg/kg", "value": 11000, "unit": "ng/mL"},
      {"measurement": "concentration at 2 h", "setting": "[2]; 40 mg/kg", "value": 3000, "unit": "ng/mL"},
      {"measurement": "ED50", "setting": "[3]", "value": "> 100", "unit": "mg/kg"},
      {"measurement": "ED50", "setting": "[4]", "value": 3.2, "unit": "mg/kg"},
      {"measurement": "ED50", "setting": "[5]", "value": 1.9, "unit": "mg/kg"},
      {"measurement": "ED50", "setting": "[6]", "value": 1.9, "unit": "mg/kg"},
      {"measurement": "ED50", "setting": "[7]", "value": 6.3, "unit": "mg/kg"},
      {"measurement": "MIC", "setting": "[8]", "value": 2.6, "unit": "µg/mL"},
      {"measurement": "MIC", "setting": "[9]", "value": 1.7, "unit": "µg/mL"},
      {"measurement": "MIC", "setting": "[10]", "value": "> 100", "unit": "µg/mL"},
      {"measurement": "MIC", "setting": "[11]", "value": "> 100", "unit": "µg/mL"},
      {"measurement": "MIC", "setting": "[12]", "value": "> 100", "unit": "µg/mL"},
      {"measurement": "MIC", "setting": "[13]", "value": 22, "unit": "µg/mL"},
      {"measurement": "MIC", "setting": "[14]", "value": 1.6, "unit": "µg/mL"},
      {"measurement": "MIC", "setting": "[15]", "value": 1.6, "unit": "µg/mL"},
      {"measurement": "MIC", "setting": "[16]", "value": 59, "unit": "µg/mL"},
      {"measurement": "MIC", "setting": "[17]", "value": 3.7, "unit": "µg/mL"},
      {"measurement": "MIC", "setting": "[18]", "value": 18, "unit": "µg/mL"},
      {"measurement": "MIC", "setting": "[19]", "value": 0.8, "unit": "µg/mL"},
      {"measurement": "MIC", "setting": "[20]", "value": "> 100", "unit": "µg/mL"},
      {"measurement": "MIC", "setting": "[21]", "value": 14, "unit": "µg/mL"},
      {"measurement": "concentration at 0.5 h", "setting": "[22]; 10 mg/kg, dose 10, 1/2 hour", "value": 3300, "unit": "ng/mL"},
      {"measurement": "concentration at 0.25 h", "setting": "[22]; 10 mg/kg, dose 10, 1/4 hour", "value": 4300, "unit": "ng/mL"},
      {"measurement": "concentration at 1 h", "setting": "[22]; 10 mg/kg, dose 10, 1 hour", "value": 2500, "unit": "ng/mL"},
      {"measurement": "concentration at 2 h", "setting": "[22]; 10 mg/kg, dose 10, 2 hour", "value": "< 800", "unit": "ng/mL"},
      {"measurement": "concentration at 0.5 h", "setting": "[22]; 20 mg/kg, dose 20, 1/2 hour", "value": 7400, "unit": "ng/mL"},
      {"measurement": "concentration at 0.25 h", "setting": "[22]; 20 mg/kg, dose 20, 1/4 hour", "value": 10000, "unit": "ng/mL"},
      {"measurement": "concentration at 1 h", "setting": "[22]; 20 mg/kg, dose 20, 1 hour", "value": 5800, "unit": "ng/mL"},
      {"measurement": "concentration at 2 h", "setting": "[22]; 20 mg/kg, dose 20, 2 hour", "value": "< 800", "unit": "ng/mL"},
      {"measurement": "concentration at 0.5 h", "setting": "[22]; 40 mg/kg, 1/2 hour", "value": 14000, "unit": "ng/mL"},
      {"measurement": "concentration at 0.25 h", "setting": "[22]; 40 mg/kg, 1/4 hour", "value": 20000, "unit": "ng/mL"},
      {"measurement": "concentration at 1 h", "setting": "[22]; 40 mg/kg, 1 hour", "value": 10000, "unit": "ng/mL"},
      {"measurement": "concentration at 2 h", "setting": "[22]; 40 mg/kg, 2 hour", "value": 3000, "unit": "ng/mL"},
      {"measurement": "ED50", "setting": "[23]", "value": 1.1, "unit": "mg/kg"},
      {"measurement": "ED50", "setting": "[24]", "value": "> 25", "unit": "mg/kg"},
      {"measurement": "ED50", "setting": "[25]", "value": 1.1, "unit": "mg/kg"}
    ]}
  ]
}
